Columns and labels:
[1] = Drug metabolism in cynomolgus monkey liver microsomes assessed as 3,3-dideuterio-N-[2-(2-dimethylaminoethylamino)-4-methoxy-5-[[4-[1-(trideuteriomethyl)indol-3-yl]pyrimidin-2-yl]amino]phenyl]prop-2-enamide metabolite formation preincubated for 10 mins under shaking condition followed by NADPH generating system addition and measured up to 60 mins by LC-MS/MS analysis; type: ADME, Macaca fascicularis, Microsome; conditions: 1 h, time <=70 min
[2] = Tmax in Sprague-Dawley rat at 6 mg/kg/day, IG administered for 7 consecutive days by LC-MS/MS analysis; type: ADME, organism-based; conditions: in vivo, po, time 7 day
[3] = Toxicity in Balb/c nude mouse xenografted with human NCI-H1975 cells harboring EGFR L858R/T790M mutant assessed as change in body weight at 3 to 5 mg/kg, po QD administered via gavage for 24 days and measured twice weekly; type: organism-based; conditions: in vivo, 576 h, dose 3-5 mg/kg, time 24 day
[4] = Half life in Sprague-Dawley rat liver microsomes preincubated for 10 mins under shaking condition followed by NADPH generating system addition and measured up to 20 mins by LC-MS/MS analysis
[5] = Intrinsic clearance in cynomolgus monkey liver microsomes preincubated for 10 mins under shaking condition followed by NADPH generating system addition and measured up to 60 mins by LC-MS/MS analysis; type: ADME, Macaca fascicularis, Microsome; conditions: 1 h, time <=70 min
[6] = Drug metabolism in CD1 mouse liver microsomes assessed as 3,3-dideuterio-N-[4-methoxy-2-[methyl-[2-(methylamino)ethyl]amino]-5-[[4-[1-(trideuteriomethyl)indol-3-yl]pyrimidin-2-yl]amino]phenyl]prop-2-enamide metabolite formation preincubated for 10 mins under shaking condition followed by NADPH generating system addition and measured up to 60 mins by LC-MS/MS analysis; type: ADME, Microsome; conditions: 1 h, time <=70 min
[7] = Drug metabolism in CD1 mouse liver microsomes assessed as 3,3-dideuterio-N-[4-methoxy-2-(methylamino)-5-[[4-[1-(trideuteriomethyl)indol-3-yl]pyrimidin-2-yl]amino]phenyl]prop-2-enamide metabolite formation preincubated for 10 mins under shaking condition followed by NADPH generating system addition and measured up to 60 mins by LC-MS/MS analysis; type: ADME, Microsome; conditions: 1 h, time <=70 min
[8] = Drug metabolism in cynomolgus monkey liver microsomes assessed as 3,3-dideuterio-N-[4-methoxy-2-(methylamino)-5-[[4-[1-(trideuteriomethyl)indol-3-yl]pyrimidin-2-yl]amino]phenyl]prop-2-enamide metabolite formation preincubated for 10 mins under shaking condition followed by NADPH generating system addition and measured up to 60 mins by LC-MS/MS analysis; type: ADME, Macaca fascicularis, Microsome; conditions: 1 h, time <=70 min
[9] = Cmax in Sprague-Dawley rat assessed as AZ5104-D2 at 6 mg/kg/day, IG administered for 7 consecutive days by LC-MS/MS analysis; type: ADME, organism-based; parameters: route […], dose 6 mg/kg/day, time 7 day; conditions: in vivo, po, 168 h
[10] = Oral bioavailability in Sprague-Dawley rat at 12 mg/kg, IG administered as single dose and measured upto 24 hrs by LC-MS/MS analysis; type: ADME, organism-based; conditions: in vivo
[11] = biological target: T1, Cytochrome P450 1A2 (Homo sapiens, UniProt P05177); experiment: Inhibition of CYP1A2 in human liver microsomes using phenacetin as substrate preincubated for 10 mins in presence of NADPH generating system followed by substrate addition and measured after 3 mins by LC-MS/MS analysis; type: ADME
T1 sequence (P05177 whole entry): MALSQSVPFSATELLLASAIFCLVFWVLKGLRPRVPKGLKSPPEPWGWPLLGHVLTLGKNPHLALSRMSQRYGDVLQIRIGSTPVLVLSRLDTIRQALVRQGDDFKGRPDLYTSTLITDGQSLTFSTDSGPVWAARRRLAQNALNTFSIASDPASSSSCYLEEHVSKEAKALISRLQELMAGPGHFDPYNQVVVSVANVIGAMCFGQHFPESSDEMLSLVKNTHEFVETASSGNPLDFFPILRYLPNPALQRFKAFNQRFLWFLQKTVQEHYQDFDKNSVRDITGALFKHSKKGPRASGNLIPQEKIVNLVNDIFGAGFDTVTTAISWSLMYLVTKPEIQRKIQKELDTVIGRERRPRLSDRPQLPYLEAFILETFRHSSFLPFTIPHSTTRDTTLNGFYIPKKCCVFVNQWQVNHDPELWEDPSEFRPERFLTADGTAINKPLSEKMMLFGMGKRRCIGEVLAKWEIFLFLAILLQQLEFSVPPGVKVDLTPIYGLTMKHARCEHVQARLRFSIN

[12] = biological target: T2, Cytochrome P450 2B6 (Homo sapiens, UniProt P20813); experiment: Inhibition of CYP2B6 in human liver microsomes using bupropion as substrate preincubated for 10 mins in presence of NADPH generating system followed by substrate addition and measured after 10 mins by LC-MS/MS analysis; type: ADME
T2 sequence (P20813 whole entry): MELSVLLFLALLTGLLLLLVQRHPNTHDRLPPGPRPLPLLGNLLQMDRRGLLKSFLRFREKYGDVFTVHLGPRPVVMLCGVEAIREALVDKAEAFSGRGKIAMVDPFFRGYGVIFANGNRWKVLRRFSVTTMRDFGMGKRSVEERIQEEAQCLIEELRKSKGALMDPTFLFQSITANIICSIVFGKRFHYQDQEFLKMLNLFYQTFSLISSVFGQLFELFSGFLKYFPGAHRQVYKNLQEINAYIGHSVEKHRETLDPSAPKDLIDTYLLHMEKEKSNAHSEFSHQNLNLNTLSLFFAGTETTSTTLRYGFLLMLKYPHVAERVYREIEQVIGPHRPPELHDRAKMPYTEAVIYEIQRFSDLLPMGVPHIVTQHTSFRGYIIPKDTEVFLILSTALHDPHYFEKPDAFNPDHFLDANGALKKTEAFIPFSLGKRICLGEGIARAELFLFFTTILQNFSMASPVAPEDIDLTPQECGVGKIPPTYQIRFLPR

[13] = biological target: T3, Cytochrome P450 2C8 (Homo sapiens, UniProt P10632); experiment: Inhibition of CYP2C8 in human liver microsomes using amodiaquine as substrate preincubated for 10 mins in presence of NADPH generating system followed by substrate addition and measured after 10 mins by LC-MS/MS analysis; type: ADME
T3 sequence (P10632 whole entry): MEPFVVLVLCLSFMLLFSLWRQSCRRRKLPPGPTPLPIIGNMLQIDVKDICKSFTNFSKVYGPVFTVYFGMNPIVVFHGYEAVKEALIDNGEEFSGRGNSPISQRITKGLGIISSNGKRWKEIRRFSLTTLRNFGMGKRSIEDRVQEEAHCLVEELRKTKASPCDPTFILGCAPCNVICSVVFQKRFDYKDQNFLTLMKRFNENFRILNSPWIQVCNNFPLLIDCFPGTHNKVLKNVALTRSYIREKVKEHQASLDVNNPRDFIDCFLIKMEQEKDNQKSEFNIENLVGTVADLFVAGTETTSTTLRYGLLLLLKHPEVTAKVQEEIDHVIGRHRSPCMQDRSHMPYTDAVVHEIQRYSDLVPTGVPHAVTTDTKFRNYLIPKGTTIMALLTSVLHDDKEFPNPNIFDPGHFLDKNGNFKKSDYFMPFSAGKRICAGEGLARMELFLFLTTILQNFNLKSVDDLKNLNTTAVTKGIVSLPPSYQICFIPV

[14] = biological target: Cytochrome P450 2C9 (Homo sapiens, UniProt P11712); experiment: Inhibition of CYP2C9 in human liver microsomes using diclofenac as substrate preincubated for 10 mins in presence of NADPH generating system followed by substrate addition and measured after 10 mins by LC-MS/MS analysis; type: ADME
[15] = biological target: Cytochrome P450 2D6 (Homo sapiens, UniProt P10635); experiment: Inhibition of CYP2D6 in human liver microsomes using dextromethorphan as substrate preincubated for 10 mins in presence of NADPH generating system followed by substrate addition and measured after 20 mins by LC-MS/MS analysis; type: ADME
[16] = in vivo; conditions: Sprague-Dawley, rat, po, 2 mg/kg
[17] = in vivo; conditions: Sprague-Dawley, rat, po, 6 mg/kg

Chain of Cytochrome P450 2C9 (P11712 whole entry): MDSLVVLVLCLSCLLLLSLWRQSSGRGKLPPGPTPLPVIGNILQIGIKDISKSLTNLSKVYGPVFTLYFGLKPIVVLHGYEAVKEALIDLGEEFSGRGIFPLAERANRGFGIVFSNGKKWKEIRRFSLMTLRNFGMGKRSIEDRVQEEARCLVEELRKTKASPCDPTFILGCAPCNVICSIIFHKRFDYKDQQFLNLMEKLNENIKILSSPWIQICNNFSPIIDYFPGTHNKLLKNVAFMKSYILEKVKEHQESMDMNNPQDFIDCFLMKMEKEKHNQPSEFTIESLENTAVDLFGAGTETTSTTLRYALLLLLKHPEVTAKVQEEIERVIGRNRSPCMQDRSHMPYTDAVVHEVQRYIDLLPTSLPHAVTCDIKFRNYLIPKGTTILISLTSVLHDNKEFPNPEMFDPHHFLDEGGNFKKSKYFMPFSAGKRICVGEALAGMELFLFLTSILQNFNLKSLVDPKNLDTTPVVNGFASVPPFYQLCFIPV
Chain of Cytochrome P450 2D6 (P10635 whole entry): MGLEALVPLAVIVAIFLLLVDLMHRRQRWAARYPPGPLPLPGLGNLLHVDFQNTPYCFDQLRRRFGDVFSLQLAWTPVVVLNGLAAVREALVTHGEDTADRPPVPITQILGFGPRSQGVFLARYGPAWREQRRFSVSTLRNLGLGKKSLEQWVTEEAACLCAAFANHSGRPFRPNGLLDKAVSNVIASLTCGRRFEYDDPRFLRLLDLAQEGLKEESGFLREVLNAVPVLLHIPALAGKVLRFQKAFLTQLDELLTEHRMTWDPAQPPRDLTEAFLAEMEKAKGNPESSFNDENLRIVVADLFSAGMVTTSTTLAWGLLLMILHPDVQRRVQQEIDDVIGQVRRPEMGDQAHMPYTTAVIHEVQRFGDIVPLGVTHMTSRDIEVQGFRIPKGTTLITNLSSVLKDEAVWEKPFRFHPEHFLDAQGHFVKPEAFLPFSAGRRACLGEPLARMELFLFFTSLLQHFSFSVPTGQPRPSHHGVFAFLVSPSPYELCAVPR

With `CS(=O)(=O)O.[2H]C([2H])=CC(=O)Nc1cc(Nc2nccc(-c3cn(C([2H])([2H])[2H])c4ccccc34)n2)c(OC)cc1N(C)CCN(C)C` the Drug metabolism [1] was “Metabolite_Detected”, the Tmax [2] was 4.67 h and the Activity [3] was “Non-Toxic”. The half-life at 20 min [4] was 34.6 min, the CLint [5] was 54.2 µL/min/mg and the Drug metabolism [6] was “Metabolite_Detected”. For the same molecule, the Drug metabolism [7] was “Metabolite_Detected”, the Drug metabolism [8] was “Metabolite_Detected” and the Cmax [9] was 0.395 nM. The bioavailability [10] was 43%, the IC50 [11] was 39.8 µM and the IC50 [12] was > 50 µM. The IC50 [13] was 29.3 µM, the IC50 [14] was > 50 µM and the IC50 [15] was > 50 µM. It also gave a half-life at 24 h [16] of 226 min and a CL/F at 168 h [17] of 325 mL/min/kg.
